# How the values were obtained:
# CYP24A1 = test: RT-qPCR of CYP24A1 mRNA in CRC cells; format: cell-based, human; conditions: HCT116 and HT29 cells, 1,25(OH)2D3 (5 µM), 48 h
# Description: Total RNA was extracted with TRIzol reagent (Invitrogen) according to the manufacturer's instructions. For cDNA synthesis, 1 μg of total RNA was reverse transcribed using a FastKing RT Kit (Tiangen). RT-qPCRs were run in triplicate using SYBR Green master mix (Roche) in an ABI 7900 Thermal Cycler (Applied Biosystems) according to the manufacturer's instructions. RT-qPCRs were performed in triplicate, and the mean cycle threshold (Ct) values were calculated for expression analysis. The mRNA levels of target genes were calculated using the 2^-ΔΔCt method. The expression data were normalized to β-actin expression levels and are presented as the mean ± s.e.m. of three independent experiments.
# [1] = Pharmacokinetic studies in mice; format: in vivo; design: t1/2 / F (bioavailability): dose or concentration left out as unconfirmed; conditions: C57BL/6J mice
# Description: Pharmacokinetic studies were performed by Shanghai Medicilon Inc, China, following standard protocols. Briefly, six-week-old male C57BL/6J mice were grouped randomly (n = 5 per group). […] Two administration formulations were prepared in the vehicle with 5% DMSO, 10% Solutol and 85% saline, with the pH adjusted to 7.0-8.0. After treatment, the mice were sacrificed, and their plasma samples were collected at 5 min, 15 min, 30 min, 1 h, 2 h, 4 h, 8 h, and 24 h. The drug concentration in plasma was analyzed by LC-MS/MS. Pharmacokinetic parameters were calculated using Analyst Software 1.6.3 from mean plasma concentration-time profiles. The area under the curve (AUC) was measured from time versus concentration data by the linear trapezoidal rule. […] The calculation was normalized to relative doses.
# SIRT6 = SIRT6 (Homo sapiens, UniProt Q8N6T7); test: FDL assay of SIRT6 deacetylase activity (RHKK-Ac-AMC); format: biochemical; design: WT (wild-type) full-length human SIRT6 was inserted into the pET28a-LIC vector; made in house; host or cells: Escherichia coli BL21 (DE3); conditions: activation of SIRT6 deacetylation, RHKK-Ac-AMC (75 µM), mean ± s.d., three independent experiments
# Sequence of SIRT6 (Q8N6T7 whole entry): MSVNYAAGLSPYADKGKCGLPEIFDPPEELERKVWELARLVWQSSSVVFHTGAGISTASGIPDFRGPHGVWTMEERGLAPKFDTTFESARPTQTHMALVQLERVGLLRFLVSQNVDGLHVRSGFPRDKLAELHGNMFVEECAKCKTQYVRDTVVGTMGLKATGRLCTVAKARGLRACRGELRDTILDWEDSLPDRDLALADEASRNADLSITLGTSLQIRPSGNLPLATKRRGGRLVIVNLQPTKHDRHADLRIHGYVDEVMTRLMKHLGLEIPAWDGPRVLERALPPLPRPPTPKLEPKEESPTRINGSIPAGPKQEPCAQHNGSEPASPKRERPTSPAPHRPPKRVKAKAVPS
# Description: According to previously described methods, WT (wild-type) full-length human SIRT6 was inserted into the pET28a-LIC vector (Addgene plasmid #26094). The plasmid was transformed into Escherichia coli BL21 (DE3) cells. Protein was purified using a nickel column and gel filtration. Purified protein was dialyzed into assay buffer (50 mM Tris-HCl [pH 8.0], 137 mM NaCl, 2.7 mM KCl, and 1 mM MgCl2) and used in all in vitro assays performed in this study.
# For the assessment of SIRT6 deacetylase activity, 5 μM WT SIRT6 was incubated in a 50-μL reaction mixture (2.5 mM NAD^+, 75 μM RHKK-Ac-AMC, compounds/DMSO, and assay buffer) at 37 °C for 2 h, quenched with 40 mM nicotinamide, and developed with 6 mg/mL trypsin for another 30 min at 25 °C. […] Fluorescence intensity was measured using a microplate reader (Synergy H4 Hybrid Reader, BioTek) at excitation and emission wavelengths of 360 nm and 460 nm, respectively. EC50 values were calculated by fitting the data points with the dose-response function in GraphPad Prism V7 (GraphPad Software). Each experiment was independently repeated three times in technical triplicates.
Structure (SMILES),EC50 (SIRT6) [µM],further results
"C=C1/C(=C\C=C2/CCC[C@]3(C)[C@@H]([C@H](C)CCCC(C)(C)O)CC[C@@H]23)C[C@@H](O)C[C@@H]1O [1,25(OH)2D3, 1,25-dihydroxyvitamin D3, reference compound]",,CYP24A1 transcription (CYP24A1): dramatically induced CYP24A1 transcription
"COC(=O)c1cc(NS(=O)(=O)c2cc(Cl)cc(Cl)c2)ccc1S(=O)(=O)Nc1cc(Br)c(F)cc1C [MDL-800, reference compound]",,"F (bioavailability) ([1]; IP vs IV, ratio of AUC normalized to dose): 71.33%; AUC0-t ([1]; IP, plasma, mean of five mice): 17831.51 ng·h/mL; AUC0-∞ ([1]; IP, plasma, mean of five mice): 17883.09 ng·h/mL; Cmax ([1]; IP, plasma, mean of five mice): 6610.46 ng/mL; MRT ([1]; IP, plasma, mean of five mice): 2.47 h; t1/2 ([1]; IP, plasma, mean of five mice): 2.07 h; tmax ([1]; IP, plasma, mean of five mice): 0.50 h"
Cc1cc(F)c(Br)cc1NS(=O)(=O)c1ccc(NS(=O)(=O)c2cc(Cl)cc(Cl)c2)cc1CN1CCNCC1 [MDL-812],12.8 ± 1,
CCCCN(CC)Cc1cc(NS(=O)(=O)c2cc(Cl)cc(Cl)c2)ccc1S(=O)(=O)Nc1cc(Br)c(F)cc1C [MDL-813],15.4 ± 0.4,
Cc1cc(F)c(Br)cc1NS(=O)(=O)c1ccc(NS(=O)(=O)c2cc(Cl)cc(Cl)c2)cc1CN(C)C [MDL-818],43.6 ± 3.2,
CCN(C)Cc1cc(NS(=O)(=O)c2cc(Cl)cc(Cl)c2)ccc1S(=O)(=O)Nc1cc(Br)c(F)cc1C [MDL-819],34.1 ± 2.6,
CCCN(C)Cc1cc(NS(=O)(=O)c2cc(Cl)cc(Cl)c2)ccc1S(=O)(=O)Nc1cc(Br)c(F)cc1C [MDL-820],38.4 ± 1.8,
Cc1cc(F)c(Br)cc1NS(=O)(=O)c1ccc(NS(=O)(=O)c2cc(Cl)cc(Cl)c2)cc1CN1CCCC1CO (stereo not shown) [MDL-822],23.9 ± 1,

# Now from value to molecule, other results behind:
EC50 (SIRT6) [µM],Structure (SMILES),further results
12.2 ± 0.7,Cc1cc(F)c(Br)cc1NS(=O)(=O)c1ccc(NS(=O)(=O)c2cc(Cl)cc(Cl)c2)cc1CN1CCC(N2CCCCC2)CC1 [MDL-814],
6.5 ± 0.4,COCCCN1CCN(Cc2cc(NS(=O)(=O)c3cc(Cl)cc(Cl)c3)ccc2S(=O)(=O)Nc2cc(Br)c(F)cc2C)CC1 [MDL-815],
7.1 ± 0.3,CCCCN1CCN(Cc2cc(NS(=O)(=O)c3cc(Cl)cc(Cl)c3)ccc2S(=O)(=O)Nc2cc(Br)c(F)cc2C)CC1 [MDL-816],
9.9 ± 1.5,Cc1cc(F)c(Br)cc1NS(=O)(=O)c1ccc(NS(=O)(=O)c2cc(Cl)cc(Cl)c2)cc1CN1CCC(N(C)C)C1 (stereo not shown) [MDL-817],
12.2 ± 0.9,Cc1cc(F)c(Br)cc1NS(=O)(=O)c1ccc(NS(=O)(=O)c2cc(Cl)cc(Cl)c2)cc1CN1CCCCC1 [MDL-821],

# — PMC7255010, “Small-molecule activating SIRT6 elicits therapeutic effects and synergistically promotes anti-tumor activity of vitamin D3 in colorectal cancer” (Theranostics, 2020)
